Measured values from paper PMC9608142, “Population pharmacokinetic analysis, renal safety, and dosing optimization of polymyxin B in lung transplant recipients with pneumonia: A prospective study” (Frontiers in Pharmacology, 2022).
Read-outs that look alike come from different tables or passages of the source. Bridge positions count the residues as written; N and C are the ends. Square brackets hold non-standard residues; d marks the D form. Peptide text beside a SMILES is read from it. * marks the point of attachment. X1 = CC[C@H](C)CCCCC(=O)*; Dab = NCC[C@H](N)C(=O)O

Legend:
[1] = Population pharmacokinetic analysis (NONMEM) of polymyxin B plasma concentrations in lung transplant recipients; type: in vivo, human
Description: (§1) This prospective study was approved by the Ethical Committees of the affiliated Wuxi People’s Hospital of Nanjing Medical University, China (KS202002), in accordance with the Declaration of Helsinki. The informed consent was obtained from each patient or his/her legal representatives. Adult lung transplant recipients receiving polymyxin B sulfate against confirmed MDR Gram-negative bacterial infections at the affiliated Wuxi People’s Hospital of Nanjing Medical University, from January 2020 to December 2021, were included in this study. The inclusion criteria were as follows: 1) ≥18 years old; 2) diagnosis of pneumonia; 3) receiving polymyxin B therapy for at least 3 days; 4) having at least one plasma concentration of polymyxin B. The exclusion criteria were as follows: 1) allergic or intolerant to polymyxin B; 2) died within 24 h after being treated with polymyxin B.
(§2) The decision to administer polymyxin B (sulfate, Polymyxin B for Injection, Shanghai Number one Biochemical and Pharmaceutical, Shanghai, China) and its medication, including the amount, dosing interval, administration route, and treatment duration, were decided by the attending physician. Generally, the loading dose of 2.0–2.5 mg/kg, and the maintenance dose of 1.25–1.5 mg/kg given every 12 h infused over 1 h was recommended according to the guideline for optimizing polymyxins ([Tsuji et al., 2019]). In addition, inhalation of polymyxin B sulfate (25 mg q12h) was combinedly used.
All the blood samples were collected at least 48 h after initiating polymyxin B ([Tsuji et al., 2019]). In each patient, four blood samples were collected: 0.5 h before starting the infusion, 1, 2, and 6 h after completing the infusion, respectively. After sampling, blood samples were immediately centrifuged at 15,000 rpm for 5 min and stored at −80°C. The concentrations of polymyxin B in the blood samples were determined by a validated high-performance liquid chromatography-tandem mass spectrometry (LC-MS/MS) assay ([Thomas et al., 2012]). The calibration range of polymyxin B by the method was 0.1–30 μg/ml. The method validations including selectivity, recovery, precision, accuracy, matrix effect, calibration curve, and stability met the requirement of FDA principles.
Nonlinear mixed-effects modeling (NONMEM) program (version 7.4, Icon Development Solutions, Ellicott City, MD, United States) and Pirana (version 2.9.7) was used to perform PK analysis of polymyxin B. R (Version 3.6.1) was used to analyze the NONMEM output. The first-order conditional estimation with the interaction between inter-patient variability and residual variability was used for model development.
One- or two-compartment structural model with first-order elimination were explored for the concentration-time profiles. Visual inspection of diagnostic plots and goodness-of-fit criteria, condition number, and improvement of the objective function value (OFV) were performed to evaluate the base model. The pharmacokinetic parameters used for this study were clearance (CL) and volume of distribution (V). Between-subject variability (BSV) was assessed using the exponential model (Eq. 1). Pi=P×EXP(ETA( ηi)) (1) Pi was the individual patient PK parameter; P was the typical value; ηi was the interpatient random variation.
Residual variability was assessed by additive (Eq. 2), proportional (Eq. 3), or combined (additive plus proportional) (Eq. 4) error models, respectively. The optimal one was chosen based on the decrease in OFV. Y=F+EPS (1) (2) Y=F+F×EPS (1) (3) Y=F+F×EPS (1)+EPS(2) (4) Y was the individual observed concentration; F was the individual predictive concentration; EPS was the residual random variation.
Relationships between the potential covariates and individual PK parameters were examined visually. […]

[2] = tested on: carbapenem-resistant organisms (A. baumannii, P. aeruginosa, K. pneumoniae, E. cloacae); assay: Clinical treatment efficacy and microbiological efficacy in lung transplant recipients with pneumonia; type: in vivo, human
Description: as §1
The demographic characteristics, laboratory data, pathogenic bacteria, medication information, and adverse events of polymyxin B sulfate were acquired from the patients’ medical records. Clinical success was defined as improvement of clinical symptoms and parameters including body temperature, biochemistry indicators of infection (white cell count ≤ 10^9, C-reactive protein ≤10 mg/L, procalcitonin <0.05 ng/ml, and erythrocyte sedimentation rate <15 mm/h), and clinician-documented improvement at the end of treatment ([Yu et al., 2022]). RIFLE (Risk, Injury, Failure, Loss of function, and End-stage kidney disease) criteria were used to assess the acute kidney injury (AKI) caused by polymyxin B ([Han et al., 2022]). The definition of nephrotoxicity caused by polymyxin B was further confirmed using the Naranjo criteria. Hyperpigmentation is defined as the darkening of the skin’s natural color, usually due to an increase in melanin deposition in the epidermis or dermis ([Lu and Hou, 2020]).
as §2

[3] = parenteral polymyxin B, mouse infection studies; ref Nang et al., 2021; cited from earlier work
Description: The urinary recovery of polymyxin B is low and non-renal clearance is considered the major route of the clearance of polymyxin B ([Tsuji et al., 2019]), but it undergoes extensive reabsorption by renal tubular cells ([Nang et al., 2021]).

[4] = cited from earlier work
Description: Supplement DataSheet1.docx, table 2: Table S2. […] The urinary recovery of polymyxin B is low and non-renal clearance is considered the major route of the clearance of polymyxin B ([Tsuji et al., 2019]), but it undergoes extensive reabsorption by renal tubular cells ([Nang et al., 2021]). […] The ratio of the area of unbound concentration-time curve to the MIC (fAUC/MIC) is the best PK/PD index predicting bacterial killing for polymyxins ([Dudhani et al., 2010a]; [Dudhani et al., 2010b]; [Cheah et al., 2015]). The fAUC/MIC value ≥20 at various MICs (0.5–2 mg/L) was used as the target ([Sandri et al., 2013]), where f (assumed to be 0.42) is the unbound fraction of polymyxin B ([Sandri et al., 2013]). The probability of target attain ... || (+ 2 further places)

Acinetobacter Baumannii = conditions: thigh infection model, ref Cheah et al., 2015; cited from earlier work
Method: (§3) This is the first study to simulate the PTA and AUCss,24h of different dosage regimens in lung transplant patients. In vitro and animal studies pointed out that fAUC/MIC is the PK/PD index that is best correlated with the efficacy of polymyxins ([Tsuji et al., 2019]). In the thigh infection model, the fAUC/MIC values of colistin for 2log10 bacterial killings were approximately 20 for P. aeruginosa and Acinetobacter Baumannii ([Cheah et al., 2015]). Therefore, considering the similar molecular structures and in vitro activity of colistin and polymyxin B, the fAUC/MIC ≥20 was determined as the P ...

P. aeruginosa = conditions: thigh infection model, ref Cheah et al., 2015; cited from earlier work
Method: as §3

[5] = bootstrap of final model, median estimate, 1,000 replicates
[6] = adult patients, n = 35, 1 CMT, ref Manchandani et al. 2018 [29]
[7] = adult patients, n = 43, 1 CMT, ref Kubin et al. 2018 [31]
[8] = adult patients, n = 46, 2 CMT, ref Wang et al. 2020 [27]
[9] = adult patients, n = 52, 2 CMT, ref Miglis et al. 2018 [28]
[10] = adult patients, n = 52, ref Miglis et al. 2018 [28]
[11] = critically ill patients, n = 24, 2 CMT, ref Sandri et al. 2013 [22]

Molecule: CC[C@H](C)CCCCC(=O)N[C@@H](CCN)C(=O)N[C@H](C(=O)N[C@@H](CCN)C(=O)N[C@H]1CCNC(=O)[C@H]([C@@H](C)O)NC(=O)[C@H](CCN)NC(=O)[C@H](CCN)NC(=O)[C@H](CC(C)C)NC(=O)[C@@H](Cc2ccccc2)NC(=O)[C@H](CCN)NC1=O)[C@@H](C)O [polymyxin B] (X1-[Dab]T[Dab][Dab][Dab][dF]L[Dab][Dab]T; lactam 4-C)
- θCL, typical value of clearance [1, 5]: 1.72 L/h
- θV, typical value of volume of distribution [1, 5]: 14.3 L
- effect of concomitant furosemide or albumin on the PK of polymyxin B ([1]; covariate test in lung transplant recipients, limited number of patients): did not significantly affect the PK
- θV, typical value of volume of distribution ([1]; final model estimate, 1-compartment): 14.4 L
- CrCL on CL (θ1), exponential value for CrCL as covariate of CL ([1]; final model estimate, CrCL/78.49): 0.681
- clearance ([1]; human, plasma, iv, base model estimate (no covariate), read-out: TVCL, typical value of clearance (converted)): 27.5 mL/min
- clearance ([1]; human, plasma, iv, final model estimate, 1-compartment, first-order elimination, at median CrCL 78.49 ml/min, read-out: θCL, typical value of clearance (converted)): 28.7 mL/min
- clearance ([1]; human, plasma, iv, present study, lung transplant patients, n = 34, read-out: CL (PK Parameters) (converted)): 31.2 mL/min
- Vd ([1]; human, plasma, iv, base model estimate, read-out: TVV, typical value of volume): 14.6 L
- AUC ([1]; mean ± SD, 34 lung transplant recipients, AUC0-24 by linear-log trapezoidal rule from Bayesian-predicted concentrations, SD): 69660 ± 35920 ng·h/mL
- Clinical anti-infective outcome: Failed ([2]; 5 of 34 patients, iv plus inhaled polymyxin B): 5 (14.71%)
- Clinical anti-infective outcome: Cured ([2]; 12 of 34 patients, iv plus inhaled polymyxin B, treatment 17.94 ± 7.13 days): 12 (35.29%)
- Clinical anti-infective outcome: Improved ([2]; 17 of 34 patients, iv plus inhaled polymyxin B): 17 (50%)
- patients considered of clinical cure or improved ([2]; 29 of 34 patients, end of treatment): 85.29%
- penetration in the lungs [3]: poor penetration in the lungs
- CL, typical value in PK formula ([4]; adult critically ill patients, n = 32, 1 CMT, CL = 1.59+(CrCL/80)^0.408, ref Yu et al. 2021 [26]): 1.59 L/h
- V ([4]; adult critically ill patients, n = 32, 1 CMT, ref Yu et al. 2021 [26]): 20.5 L
- CL (PK Parameters) ([4]; adult critically ill patients, n = 32, ref Yu et al. 2021 [26]): 1.75 L/h
- CL in PK formula [4, 6]: 2.5 L/h
- V [4, 6]: 34.3 L
- CL (PK Parameters), mean ([4]; adult patients, n = 35, mean, ref Manchandani et al. 2018 [29]): 2.5 L/h
- CL in PK formula [4, 7]: 2.37 L/h
- V [4, 7]: 33.4 L
- Q [4, 8]: 13.518 L/h
- V [4, 8]: 6.218 L
- V2 [4, 8]: 11.922 L
- CL, typical value in PK formula ([4]; adult patients, n = 46, 2 CMT, ×(CrCL/105.9)^0.362, ref Wang et al. 2020 [27]): 1.786 L/h
- CL (PK Parameters), median ([4]; adult patients, n = 46, median, ref Wang et al. 2020 [27]): 1.786 L/h
- Q [4, 9]: 2.32 L/h
- Vc [4, 9]: 33.77 L
- Vp [4, 9]: 78.20 L
- CL, typical value in PK formula ([4]; adult patients, n = 52, 2 CMT, ×(TBW/75)^0.75, ref Miglis et al. 2018 [28]): 2.63 L/h
- CL (PK Parameters) [4, 10]: 2.63 ± 1.41 L/h
- V (PK Parameters) [4, 10]: 33.77 ± 15.21 L
- f, unbound fraction of polymyxin B ([4]; assumed value used for fAUC/MIC, ref Sandri et al., 2013): 0.42
- effect of inhalation therapy on the exposure of polymyxin B in blood ([4]; co-inhalation 25 mg q12h, critically ill patients, ref Yu et al., 2021): did not significantly increase the exposure
- CLic [4, 11]: 2.43 mL/min/kg
- V1 [4, 11]: 0.0939 L/kg
- V2 [4, 11]: 0.330 L/kg
- CL, typical value in PK formula ([4]; critically ill patients, n = 24, 2 CMT, ×(TBW/75)^0.75, ref Sandri et al. 2013 [22]): 0.46 mL/min/kg
- urinary recovery ([4]; non-renal clearance considered the major route, ref Tsuji et al., 2019): low
- CL, typical value in PK formula ([4]; renal transplant patients, n = 50, 1 CMT, CL = 1.18×(CrCL/22.2)^0.14, ref Li et al. 2021 [14]): 1.18 L/h
- V ([4]; renal transplant patients, n = 50, 1 CMT, ref Li et al. 2021 [14]): 12.09 L

Molecule: colistin
- fAUC/MIC value for 2log10 bacterial killings (Acinetobacter Baumannii): approximately 20
- fAUC/MIC value for 2log10 bacterial killings (P. aeruginosa): approximately 20
